For one assay, the system named is PAO1ΔpslA. Briefly: OPK assay, Psl-deficient PAO1ΔpslA and complemented strain. In kind it is cell-based, Pseudomonas aeruginosa. The note with it: complemented PAO1ΔpslA in contrast to the mutant; FIGS. 3F, 3G. The protocol: This example describes the evaluation of prioritized human IgG1 antibodies to promote OPK of P. aeruginosa. […] OPK assays were performed as described in (DiGiandomenico, A., et al., Infect Immun 72, 7012-7021 (2004)), with modifications. Briefly, assays were performed in 96-well plates using 0.025 ml of each OPK component; P. aeruginosa strains; diluted baby rabbit serum; differentiated HL-60 cells; and monoclonal antibody. In some OPK assays, luminescent P. aeruginosa strains, which were constructed as described (Choi, K. H., et al., Nat Methods 2, 443-448 (2005)), were used. Luminescent OPK assays were performed as described above but with determination of relative luciferase units (RLUs) using a Perkin Elmer ENVISION Multilabel plate reader (Perkin Elmer). […]
This example describes two series of experiments evaluating the ability of PMB-mAb conjugates to promote OPK of P. aeruginosa. In the first experiments (FIGS. 15A-B), conjugate-mediated OPK activity by human HL-60 neutrophil cell line in the presence of rabbit complement was evaluated using P. aeruginosa strains expressing bacterial luciferase as described in Example 2. […] In the second series of experiments, reduction in luminescence following 2 h incubation relative to control lacking mAb was used to determine % killing.

Assay [1] relates to P. aeruginosa strain 9882-80 (O11). As to the kind of experiment: OPK assay, strain 9882-80.lux. The note with it: strain 9882-80.lux (O11); FIG. 2B. In kind it is cell-based, Pseudomonas aeruginosa. As for the experimental part: This example describes the evaluation of prioritized human IgG1 antibodies to promote OPK of P. aeruginosa. […] OPK assays were performed as described in (DiGiandomenico, A., et al., Infect Immun 72, 7012-7021 (2004)), with modifications. Briefly, assays were performed in 96-well plates using 0.025 ml of each OPK component; P. aeruginosa strains; diluted baby rabbit serum; differentiated HL-60 cells; and monoclonal antibody. In some OPK assays, luminescent P. aeruginosa strains, which were constructed as described (Choi, K. H., et al., Nat Methods 2, 443-448 (2005)), were used. Luminescent OPK assays were performed as described above but with determination of relative luciferase units (RLUs) using a Perkin Elmer ENVISION Multilabel plate reader (Perkin Elmer).
The ability of the WapR-004 and Cam-003 antibodies to mediate OPK activity against another clinically relevant O-antigen serotype strain, 9882-80.lux, was evaluated.

Assay [2] concerns P. aeruginosa PAO1 and isogenic mutants. As to the kind of experiment: Indirect ELISA on plates coated with P. aeruginosa strains. In kind it is binding, Pseudomonas aeruginosa. An excerpt:
In addition, duplication of VH CDR3 loop sequences in the libraries (a measure of clonal enrichment during selection), was also found to be higher in the patient library, reaching 88-92%, compared to 15-25% in the naïve library at round 3 (FIG. 1D). Individual scFv phage from affinity selections were next screened by ELISA for reactivity to P. aeruginosa heterologous serotype strains (FIG. 1E). ELISA plates (Nunc; MAXISORP™) were coated with P. aeruginosa strains from overnight cultures as described (DiGiandomenico, A., et al., Infect Immun 72, 7012-7021 (2004)). Diluted antibodies were added to blocked plates for 1 hour, washed, and treated with HRP-conjugated anti-human secondary antibodies for 1 hour followed by development and analysis as described (Ulbrandt, N. D., et al., J Virol 80, 7799-7806 (2006)). The dominant species of phage obtained from whole cell selections with both libraries yielded serotype specific reactivity (data not shown).
This example describes identification of the target of anti-P. aeruginosa antibodies derived from phenotypic screening. Target analysis was performed to test whether the serotype independent antibodies targeted protein or carbohydrate antigens. […] Isogenic mutants were constructed in genes responsible for O-antigen, alginate, and LPS core biosynthesis; wbpL (O-antigen-deficient); wbpL/algD (O-antigen and alginate deficient); rmlC (O-antigen-deficient and truncated outer core); and galU (O-antigen-deficient and truncated inner core). P. aeruginosa mutants were constructed based on the allele replacement strategy described by Schweizer (Schweizer, H. P., Mol Microbiol 6, 1195-1204 (1992); Schweizer, H. D., Biotechniques 15, 831-834 (1993)). Vectors were mobilized from E. coli strain 517.1 into P. aeruginosa strain PAO1; recombinants were isolated as described (Hoang, T. T., et al., Gene 212, 77-86 (1998)). Gene deletion was confirmed by PCR. P. aeruginosa mutants were complemented with pUCP30T-based constructs harboring wild type genes. […] The rmlC and galU genes were recently shown to be required for biosynthesis of the Psl exopolysaccharide, a repeating pentasaccharide polymer consisting of D-mannose, L-rhamnose, and D-glucose. Cam-003 binding to an isogenic pslA knockout PAO1ΔpslA, was tested, as pslA is required for Psl biosynthesis (Byrd, M. S., et al., Mol Microbiol 73, 622-638 (2009)). Binding of Cam-003 to PAO1ΔpslA was abolished when tested by ELISA (FIG. 3B) and FACS (FIG. 3C), while the LPS molecule in this mutant was unaffected (FIG. 3D). Binding of Cam-003 was restored in a PAO1ΔwbpL/algD/pslA triple mutant complemented with pslA (FIG. 3E) as was the ability of Cam-003 to mediate opsonic killing to complemented PAO1ΔpslA in contrast to the mutant (FIGS. 3F and 3G). Binding of Cam-003 antibody to a Pcl exopolysaccharide mutant was also unaffected further confirming Psl as our antibody target (FIG. 3E). Binding assays confirmed that the remaining antibodies also bound Psl (FIGS. 3H and 3I).
Background: ELISA stands for enzyme-linked immunosorbent assay.

The subject of assay [3] is P. aeruginosa strain 6294. As to the kind of experiment: P. aeruginosa sepsis model. In kind it is in vivo, C57Bl/6 mice. The protocol:
C57Bl/6 mice (10 per group) were dosed with mAb or PMB-mAb conjugates i.p (10, 1 and 0.1 mg/kg) 6 h prior to i.p. challenge with LD80-100 dose of P. aeruginosa strain 6294 (4E7 CFU). Data from two studies was combined in this analysis. Survival was monitored over 72 h. Combined results of two studies are shown in FIGS. 21A-C: Most control mice dosed with A7 or buffer died by 24 h. […] Conversely, the conjugates were less protective than CAM-003 at the low dose of 0.1 mg/kg, and protective activity correlated with in vitro OPK activity of the conjugates (WT>SM>DM>TM).

For the substance “Cam-003: human IgG1 anti-Psl monoclonal antibody, VH SEQ ID NO: 1 and VL SEQ ID NO: 2”, the “ability to mediate opsonic killing” value in the assay with PAO1ΔpslA was “restored”. For the same substance, the OPK activity result in assay [1] is reported as “OPK activity extends to strain 9882-80”. In addition, the “reactivity to purified LPS” value in assay [2] (LPS purified from PAO1) is “not observed”. Further, the ELISA binding entry is listed as “abolished” in assay [2] (PAO1ΔpslA, FIG. 3B); “restored” in assay [2] (PAO1ΔwbpL/algD/pslA triple mutant complemented with pslA, FIG. 3E); “unaffected” in assay [2] (Pcl exopolysaccharide mutant, FIG. 3E); “abolished” in assay [2] (rmlC and galU mutants, FIGS. 3A, 3J); “unaffected” in assay [2] (wbpL or wbpL/algD double mutant, FIGS. 3A, 3J). For the same substance, in assay [3] (10, 1 and 0.1 mg/kg), the “dose relation of protective activity” value is “inversely correlated with dose”. In addition, the protection in assay [3] (10, 1 and 0.1 mg/kg i.p. 6 h prior to i.p. challenge, survival over 72 h, FIGS. 21A-C) is 50-90%.

Values taken from patent publication US10370436B2, “Anti-pseudomonas Psl binding molecules and uses thereof” (priority 2011, dated 2019).
